Laboratory results as given in publication PMC11045757, “Group 3 medulloblastoma transcriptional networks collapse under domain specific EP300/CBP inhibition” (Nature Communications, 2024).
Values joined by “and” are separate entries in the source; they are usually repeats but may differ in a detail not shown here. Identical values can stand only once.

What was measured:
BRD4-BD1 (BRD4-1) = target: T1, BRD4-BD1 (BRD4-1) (Homo sapiens, UniProt O60885); assay: Differential scanning fluorimetry (DSF) thermal shift; type: binding
T1 construct: BRD4-BD1 (residues 44-168); 6xHis (cleaved yes); host or cells: E. coli BL21 (DE3) RIL
Method in brief: (§1)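 Thermal shift of 5 μM E. coli-expressed bromodomain with 100 μM compound in 50 mM HEPES pH 7.5, 150 mM NaCl, 2 mM DTT, 2% DMSO, 5X SYPRO Orange, quadruplicate. Heated 25→95 °C at 1 °C/min, fluorescence at 610 nm; ΔTm relative to DMSO reference wells.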

EP300 bromodomain = target: T2, EP300 bromodomain (Homo sapiens, UniProt Q09472); assay: as above; type: binding
T2 construct: 6xHis (cleaved yes); host or cells: E. coli BL21 (DE3) RIL
T2 sequence (Q09472 1048-1161): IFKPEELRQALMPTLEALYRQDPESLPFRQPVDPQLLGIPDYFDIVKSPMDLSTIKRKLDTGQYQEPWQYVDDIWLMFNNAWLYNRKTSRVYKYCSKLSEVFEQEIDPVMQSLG
Method in brief: as §1

ATAD2B = target: T3, ATAD2B (Homo sapiens, UniProt Q9ULI0); assay: BromoScan profiling (DiscoverX); type: binding; details: read-out: Percent Control ATAD2B
T3 construct: purchased Eurofins DiscoverX (BROMOscan)

CECR2 = target: T4, CECR2 (Homo sapiens, UniProt Q9BXF3); assay: BromoScan profiling (DiscoverX); type: binding; details: read-out: Percent Control CECR2
T4 construct: purchased Eurofins DiscoverX (BROMOscan)

FALZ = target: T5, FALZ (Homo sapiens, UniProt Q12830); assay: BromoScan profiling (DiscoverX); type: binding; details: read-out: Percent Control FALZ
T5 construct: purchased Eurofins DiscoverX (BROMOscan)

[1] = tested on: c-MYC in HDMB03 (HDMBO3) cells; assay: Western blotting for c-MYC after 6 h treatment; type: cell-based; details: CCS1477 39 nM, A485 400 nM, JQ1 100 nM
Description: Line width indicates strength of known protein-protein interactions. Red indicates proteins involved in control of mRNA transcription/cell cycle, blue indicates proteins involved in RNA metabolism.
Western blotting protocols were as previously described[16],[69]. Briefly, cells growing in culture were lysed for whole-cell lysates using RIPA buffer, or for affinity pulldown using IP-lysis buffer (Pierce Biotechnology) per the manufacturer’s protocol. […] Equal amounts of protein were resolved by Western blotting using 4% to 12% Bis–Tris NuPAGE gels (Thermo Fisher Scientific) prior to transfer and immunoblotting using primary antibodies to EP300 (1:1000, Abcam ab10485), BRD4 (1:1000, Epicypher 13-2003), c-MYC (1:1000, Cell Signaling Technology #5605) or β-Actin (1:1000, Cell Signaling Technology #4967). Secondary antibodies were horseradish peroxidase–conjugated anti-rabbit or anti-mouse (1:5000, Santa Cruz Biotechnology, sc-2357, sc-358914), incubated prior to exposure to enhanced chemiluminescence reagents (GE Amersham). Densitometry was performed using Image Lab v6.1 (BioRad).

[2] = Brain tissue concentration after i.p. dosing (LC-MS/MS); type: in vivo, female CD-1 nude mice; details: below lower limit of quantitation
Experimental: One of the most aggressive MB tumor subtypes are Group 3 medulloblastoma (G3MB), which are commonly characterized by overexpression of the driver oncogene c-MYC due to gene amplification in 17% of cases[40],[42],[43]. These tumors are associated with poor patient survival. […] We sacrificed treated mice at three timepoints after dosing (8, 16, 24 h) and perfused the murine vasculature with PBS to eliminate contaminating blood from the brain.
All animal studies were approved by the St. Jude Children’s Research Hospital Animal Care and Use Committee and performed in accordance with best practices outlined by the NIH Office of Laboratory Animal Welfare. […]
Brain samples were homogenized using a FastPrep-24 system (MP Biomedicals, Santa Ana, CA), and stored at -80 °C until analysis by qualified liquid chromatography–tandem mass spectrometry (LC-MS/MS) assay. […] Plasma and brain homogenate samples were precipitated, and extracted supernatant was analyzed on an AB Sciex ExionLC high performance liquid chromatography system via an AB Sciex ExionLC autosampler. For quantitation, a linear model (1/X^2 weighting) fit the plasma and brian homogenate calibrators across the 1 to 500 ng/mL range, with a correlation coefficient (R) of ≥0.9967. […] No matrix effects, ion enhancement or suppression, were detected in blank CD-1 mouse plasma or NSG brain homogenates.

[3] = DSF, 5 μM protein, 100 μM compound, three independent experiments, average ± SD

T3 sequence (Q9ULI0 whole entry): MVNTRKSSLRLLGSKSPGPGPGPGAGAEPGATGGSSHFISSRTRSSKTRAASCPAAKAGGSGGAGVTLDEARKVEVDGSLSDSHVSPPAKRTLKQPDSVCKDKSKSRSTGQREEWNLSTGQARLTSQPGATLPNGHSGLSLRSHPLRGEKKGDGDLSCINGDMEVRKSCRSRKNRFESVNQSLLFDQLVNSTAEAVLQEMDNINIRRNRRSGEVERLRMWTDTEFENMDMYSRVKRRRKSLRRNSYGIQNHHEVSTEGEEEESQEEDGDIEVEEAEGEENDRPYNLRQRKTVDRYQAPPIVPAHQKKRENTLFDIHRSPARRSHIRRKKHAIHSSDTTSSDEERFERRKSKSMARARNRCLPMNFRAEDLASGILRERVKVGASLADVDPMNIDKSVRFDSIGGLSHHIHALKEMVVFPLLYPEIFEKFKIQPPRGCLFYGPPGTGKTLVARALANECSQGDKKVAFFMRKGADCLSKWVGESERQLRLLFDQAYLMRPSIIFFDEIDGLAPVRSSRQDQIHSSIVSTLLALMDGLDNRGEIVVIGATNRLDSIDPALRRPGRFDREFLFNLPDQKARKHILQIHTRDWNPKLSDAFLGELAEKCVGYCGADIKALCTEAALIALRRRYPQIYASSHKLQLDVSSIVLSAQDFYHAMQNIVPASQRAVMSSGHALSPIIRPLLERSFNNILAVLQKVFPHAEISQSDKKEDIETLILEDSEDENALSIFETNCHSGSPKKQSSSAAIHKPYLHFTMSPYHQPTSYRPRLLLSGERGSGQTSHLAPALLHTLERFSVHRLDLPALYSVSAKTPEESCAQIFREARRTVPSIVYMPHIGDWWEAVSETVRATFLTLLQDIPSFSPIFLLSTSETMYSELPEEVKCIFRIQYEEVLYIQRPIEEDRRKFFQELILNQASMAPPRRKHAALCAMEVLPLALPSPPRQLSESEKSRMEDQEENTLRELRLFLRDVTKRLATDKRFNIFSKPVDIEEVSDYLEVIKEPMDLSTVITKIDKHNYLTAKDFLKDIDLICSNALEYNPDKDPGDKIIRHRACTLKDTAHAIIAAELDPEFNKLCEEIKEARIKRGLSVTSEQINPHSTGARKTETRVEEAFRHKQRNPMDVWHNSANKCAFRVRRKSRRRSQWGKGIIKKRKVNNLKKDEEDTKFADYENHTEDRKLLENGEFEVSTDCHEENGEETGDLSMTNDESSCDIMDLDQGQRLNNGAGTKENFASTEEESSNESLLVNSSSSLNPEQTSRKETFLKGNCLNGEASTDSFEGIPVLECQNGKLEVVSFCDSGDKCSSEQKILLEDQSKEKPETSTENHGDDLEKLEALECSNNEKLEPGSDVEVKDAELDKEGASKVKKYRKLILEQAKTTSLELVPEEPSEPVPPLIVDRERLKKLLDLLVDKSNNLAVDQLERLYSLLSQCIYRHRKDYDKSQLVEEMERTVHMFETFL
T4 sequence (Q9BXF3 whole entry): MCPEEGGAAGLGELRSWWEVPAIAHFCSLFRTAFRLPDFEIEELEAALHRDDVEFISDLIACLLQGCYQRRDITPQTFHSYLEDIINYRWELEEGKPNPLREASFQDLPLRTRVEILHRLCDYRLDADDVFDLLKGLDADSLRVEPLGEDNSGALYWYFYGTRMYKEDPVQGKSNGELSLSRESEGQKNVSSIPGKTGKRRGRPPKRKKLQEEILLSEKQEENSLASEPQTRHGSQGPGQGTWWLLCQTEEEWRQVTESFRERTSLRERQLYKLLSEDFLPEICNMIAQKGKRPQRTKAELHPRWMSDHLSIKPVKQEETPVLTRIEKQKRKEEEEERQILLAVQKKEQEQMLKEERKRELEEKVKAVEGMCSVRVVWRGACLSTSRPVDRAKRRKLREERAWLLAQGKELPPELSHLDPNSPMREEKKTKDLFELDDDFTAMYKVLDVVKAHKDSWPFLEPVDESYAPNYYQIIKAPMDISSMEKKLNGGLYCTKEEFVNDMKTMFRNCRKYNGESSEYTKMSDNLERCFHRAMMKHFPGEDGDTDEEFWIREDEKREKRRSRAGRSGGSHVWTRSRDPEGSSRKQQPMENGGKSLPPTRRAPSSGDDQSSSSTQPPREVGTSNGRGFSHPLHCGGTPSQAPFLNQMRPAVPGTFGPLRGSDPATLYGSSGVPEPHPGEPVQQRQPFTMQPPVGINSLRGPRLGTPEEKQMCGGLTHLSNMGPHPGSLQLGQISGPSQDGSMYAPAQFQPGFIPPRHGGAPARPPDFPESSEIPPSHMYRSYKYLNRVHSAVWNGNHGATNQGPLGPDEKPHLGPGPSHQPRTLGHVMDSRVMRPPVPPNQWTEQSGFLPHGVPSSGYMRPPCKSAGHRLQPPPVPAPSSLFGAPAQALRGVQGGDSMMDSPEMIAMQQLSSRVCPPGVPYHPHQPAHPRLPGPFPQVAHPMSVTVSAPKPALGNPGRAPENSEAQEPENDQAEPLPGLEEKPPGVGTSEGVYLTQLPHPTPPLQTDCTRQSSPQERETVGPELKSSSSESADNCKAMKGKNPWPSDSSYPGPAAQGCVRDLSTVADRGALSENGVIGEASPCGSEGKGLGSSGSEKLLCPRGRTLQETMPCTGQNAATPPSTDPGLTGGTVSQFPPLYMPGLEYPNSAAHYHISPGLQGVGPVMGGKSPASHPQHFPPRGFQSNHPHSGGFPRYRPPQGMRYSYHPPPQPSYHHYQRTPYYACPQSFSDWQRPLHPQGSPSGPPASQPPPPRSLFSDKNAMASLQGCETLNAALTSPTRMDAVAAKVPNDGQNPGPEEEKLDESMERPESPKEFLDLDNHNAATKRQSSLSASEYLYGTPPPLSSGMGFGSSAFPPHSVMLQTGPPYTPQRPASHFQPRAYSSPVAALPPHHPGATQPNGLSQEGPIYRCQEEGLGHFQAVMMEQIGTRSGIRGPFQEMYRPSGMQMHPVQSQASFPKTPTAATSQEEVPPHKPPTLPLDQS

CO[C@H]1CC[C@H](n2c([C@@H]3CCCC(=O)N3c3ccc(F)c(F)c3)nc3cc(-c4c(C)noc4C)ccc32)CC1 [CCS1477]
ΔTm (°C) (BRD4-BD1 (BRD4-1); DSF thermal shift vs DMSO, BRD4-BD1, Fig 2B): 6.7 °C
∆Tm (°C) BRD4-1 (BRD4-BD1 (BRD4-1); [3]): 6.7 ± 0.16 °C and 6.7 °C
ΔTm (°C) (EP300 bromodomain; DSF thermal shift vs DMSO, EP300 bromodomain, Fig 2B): 18.3 °C
∆Tm (°C) EP300 (EP300 bromodomain; [3]): 18.3 ± 0.2 °C
ΔTm (°C) EP300 (EP300 bromodomain; Figure 3B, DSF, EP300): 18.3 °C
remaining binding at 1 µM (ATAD2B): 79%
remaining binding at 1 µM (CECR2): 78%
remaining binding at 1 µM (FALZ): 63%
MYC gene expression and protein levels [1]: loss of MYC gene expression and protein levels
brain tissue concentration ([2]; 25 or 50 mg/kg i.p., 8, 16, 24 h): < 6 ng/mL
brain concentration ([2]; i.p., 16 and 24 hrs): < 6 ng/mL
